Where two headings read alike, the source gives them in different places.
Legend:
[1] = tested on: mitogen-activated protein kinase (MAPK); settings: systemically administered (Peng et al., 1998); cited from earlier work
cAMP = settings: retina (Osborne 1991); cited from earlier work
photoreceptors = settings: albino rats, cited from earlier work; for protection of photoreceptors from light damage: systemic administration (Wen et al., 1996)
ischemic retinal injury = settings: cited from earlier work
retinal ganglion cells = settings: rat, intraperitoneal administration (Yoles et al 1999); cited from earlier work
[2] = tested on: Müller cells of RPE-free eye rudiments; settings: for upregulation of GFAP induced by RPE removal: brimonidine added to culture media; for glutamine synthetase (GS) immunoreactivity: brimonidine-treated RPE-free eye rudiments
Description: (§1) The following studies were performed on Xenopus embryos. Briefly, eye rudiments were removed from stage 33/34 Xenopus embryos. The RPE was peeled from the outer retinal surface and eyes were cultured for 3 days in Niu-Twitty (NT) medium. The same experiment was performed in NT medium containing 0.001% brimonidine. Control conditions included eye rudiments cultured with the RPE and eyes allowed to mature in vivo to an equivalent developmental stage. Retinal morphology was assessed, carefully evaluating PRs and MCs.
(§2) The culture preparation used in these studies has been previously described (Hollyfield, 1974; Lolley, 1977; Stiemke, 1994; Stiemke, 1995; and Jablonski, 1999). The handling of animals was in accordance with the Declaration of Helsinki and The Guiding Principles in the Care and Use of Animals (DHEW Publication, NIH 80-23). Human chorionic gonadotropin (Sigma Chemical Co., St. Louis, Mo.) was to induce adult Xenopus laevis to breed. The external staging system of Nieuwkoop and Faber was used to determine retinal maturity (Nieuwkoop, 1956). Embryos and isolated eyes were maintained under cyclic lighting conditions (12 hour light: 12 hour dark) in all experiments, rudimentary eyes were removed from embryos at state 33/34, just as photoreceptor outer segments are beginning to form (Stiemke, 1994). Eyes were maintained in vitro for three days at 23° C. in Niu-Twitty medium (Jacobson, 1967) after which they were fixed for subsequent analyses.
When appropriate, the overlying RPE was gently peeled away from the neuroepithelium using finely polished forceps, leaving the underlying retina exposed to the culture medium. Eye rudiments without a closely adherent RPE were cultured in Niu-Twitty media alone, Niu-Twitty containing 0.001% brimonidine. Eyes allowed to mature in vitro in the presence of an adherent RPE in Niu-Twitty medium alone were used as controls.
Any eye with an uneven surface or which had many loose cells associated with it was discarded.

opsin = settings: 0.0001% brimonidine in culture media
Description: as §1
as §2, with “Eyes were maintained in vitro for three days at 23° C. in Niu-Twitty medium (Jacobson, 1967) after which they were fixed for subsequent analyses.” left out

[3] = topical administration to the eye, animals and clinical trials; cited from earlier work
[4] = primate, 2% solution of brimonidine tartrate, twice daily; cited from earlier work
[5] = expected, topical administration, to be verified
Description: The intraocular concentration is likely to be inversely proportional to the surface area available for absorption. […] Once verified, the dosage of brimonidine in eyedrops will be adjusted accordingly (10:1 dilution, i.e. 0.02%) to mimic more closely the intraocular concentrations that would be reached during human application.
The intraocular concentration is likely to be inversely proportional to the surface area available for absorption. […] Once verified, the dosage of brimonidine in the eyedrops would be adjusted accordingly (predicted to be a 10:1 dilution, i.e., 0.02%) to mimic more closely the intraocular concentrations that would be reached during human application.

[6] = rabbit, cited from earlier work
[7] = topically applied, glaucomatous patients (Lachkar 1998; Carlsson 1999); cited from earlier work
[8] = tested on: retinal degeneration (RP); settings: patients with RP, 15,000 I.U. daily (Berson 1993); cited from earlier work

## Clc1cccc(Cl)c1N=C1NCCN1 [clonidine]
[1]
  MAPK phosphorylation in Müller cells: activate selectively and specifically
cAMP
  cAMP levels following stimulation with forskolin and VIP: reduce cAMP levels
photoreceptors
  protection of photoreceptors from light damage: protect the photoreceptors of albino rats from light damage

## Brc1c(NC2=NCCN2)ccc2nccnc12 [brimonidine, 5-bromo-6-(2-imidazolidinylideneamino)-quinoxaline]
Ischemic retinal injury; retinal ischemia
  ERG b-wave truncation due to ischemia: partially prevent this b-wave truncation
Ischemic retinal injury; topically applied 1 hour before injury (Wheeler et al. 1999)
  ischemic retinal injury: effective in decreasing ischemic retinal injury
Retinal ganglion cells
  loss of retinal ganglion cells induced by the crush: effective in decreasing loss of retinal ganglion cells
[2]; 0.0001% brimonidine, RPE removed, data not shown
  n-cadherin immunolocalization patterns: preserved
[2]; RPE removed
  upregulation of GFAP induced by RPE removal: virtually abolished
[2]; RPE removed, listed as Brimonidine
  upregulation of GFAP induced by RPE removal: prevented the upregulation of GFAP expression
[2]
  glutamine synthetase (GS) immunoreactivity: well preserved
[2]; listed as Brimonidine
  glutamine synthetase (GS) immunoreactivity: allows Müller cells to express glutamine synthetase in the absence of the RPE
opsin
  amount of opsin/eye compared to RPE-free eyes cultured without brimonidine: marked increase
[3]
  intraocular pressure (IOP): decrease in intraocular pressure
[4]
  intravitreal concentration reached via topical administration: 100 nM
[5]
  intraocular concentration in mouse eye relative to primate eye: approximately 10 times
[6]; 2% solution of brimonidine tartrate, twice daily
  intravitreal concentration reached via topical administration: 450 nM
[6]; topical administration to the other eye
  concentration reaching the fellow eye via the systemic circulation: < 15 nM

## brimonidine tartrate
[7]
  blood flow in ophthalmic, central retinal, nasal and temporal ciliary arteries: did not affect the blood flow

## Brc1c(NC2=NCCN2)ccc2nccnc12 [UK 14304]
cAMP
  cAMP levels following stimulation with forskolin and VIP: reduce cAMP levels

## CCCCCCCCCCCCCCCC(=O)OC/C=C(C)/C=C/C=C(C)/C=C/C1=C(C)CCCC1(C)C [vitamin A palmitate]
[8]
  progression of retinal degeneration: slowed, but did not prevent, the progression of retinal degeneration

## Cc1cccc(C)c1N=C1NCCCS1 [xylazine]
[1]
  MAPK phosphorylation in Müller cells: activate selectively and specifically
photoreceptors
  protection of photoreceptors from light damage: protect the photoreceptors of albino rats from light damage

## COC(=O)[C@@H]1[C@H]2C[C@H]3c4[nH]c5ccccc5c4CCN3C[C@@H]2CC[C@@H]1O [yohimbine]
photoreceptors; pretreatment with the antagonist (Wen et al., 1996)
  effect of pretreatment on the protective effect of xylazine and clonidine: prevented the protective effect
